Reference: the NIST ThermoML archive (doi:10.1021/je0501078)

Assays:
[1] = Crystal
[2] = molar heat capacity at saturation pressure; details: Crystal

O=C1CCCCC1C1(O)CCCCC1 (configuration not stated) [1'-hydroxy-[1,1'-bicyclohexyl]-2-one]
Details	mass density [kg/m3]
[1], 292 K, 101.33 kPa, Pycnometric method	1140

Details	Triple point temperature [K]	molar heat capacity [J/K/mol]
[1], Adiabatic calorimetry	306.75	–
[1], DSC	306.9	–
[2], 5.16 K	–	0.533
[2], 5.41 K	–	0.6159
[2], 5.68 K	–	0.7141
[2], 5.97 K	–	0.8182
[2], 6.29 K	–	0.9686
[2], 6.62 K	–	1.137
[2], 6.94 K	–	1.337
[2], 7.27 K	–	1.564
[2], 7.69 K	–	1.849
[2], 8.09 K	–	2.166
[2], 8.51 K	–	2.524
[2], 8.97 K	–	2.903
[2], 9.4 K	–	3.307
[2], 9.86 K	–	3.764
[2], 10.32 K	–	4.247
[2], 10.8 K	–	4.745
[2], 11.34 K	–	5.386
[2], 11.91 K	–	6.078
[2], 12.5 K	–	6.783
[2], 13.09 K	–	7.518
[2], 13.65 K	–	8.27
[2], 14.26 K	–	9.088
[2], 14.87 K	–	9.894
[2], 15.47 K	–	10.71
[2], 16.12 K	–	11.66
[2], 16.79 K	–	12.66
[2], 17.47 K	–	13.66
[2], 18.17 K	–	14.72
[2], 18.86 K	–	15.8
[2], 19.61 K	–	16.87
[2], 20.52 K	–	18.24
[2], 21.52 K	–	19.81
[2], 22.54 K	–	21.36
[2], 23.56 K	–	22.97
[2], 24.68 K	–	24.67
[2], 25.89 K	–	26.58
[2], 27.12 K	–	28.34
[2], 28.37 K	–	30.15
[2], 29.78 K	–	32.21
[2], 31.31 K	–	34.26
[2], 32.81 K	–	36.25
[2], 34.25 K	–	38.29
[2], 35.69 K	–	40.02
[2], 37.25 K	–	42.05
[2], 38.95 K	–	44.28
[2], 40.79 K	–	46.36
[2], 42.67 K	–	48.72
[2], 44.41 K	–	50.59
[2], 46.25 K	–	52.77
[2], 48.19 K	–	54.67
[2], 50.08 K	–	56.63
[2], 51.93 K	–	58.46
[2], 53.83 K	–	60.66
[2], 55.82 K	–	62.66
[2], 57.81 K	–	64.39
[2], 59.76 K	–	66.21
[2], 61.73 K	–	68.03
[2], 63.72 K	–	69.96
[2], 65.71 K	–	71.5
[2], 67.67 K	–	73.51
[2], 69.76 K	–	75.35
[2], 72.08 K	–	77.34
[2], 74.55 K	–	79.53
[2], 76.99 K	–	81.52
[2], 79.43 K	–	83.56
[2], 81.9 K	–	85.64
[2], 84.37 K	–	87.8
[2], 86.86 K	–	89.8
[2], 89.34 K	–	92.04
[2], 91.79 K	–	93.87
[2], 94.27 K	–	96.03
[2], 96.74 K	–	97.94
[2], 99.23 K	–	100.3
[2], 99.86 K	–	100.6
[2], 101.72 K	–	102.1
[2], 101.89 K	–	102.2
[2], 103.96 K	–	103.9
[2], 104.22 K	–	104.1
[2], 106 K	–	105.5
[2], 108.09 K	–	107.2
[2], 110.22 K	–	108.8
[2], 112.32 K	–	110.3
[2], 114.47 K	–	112.2
[2], 116.67 K	–	113.7
